One compound from patent US20240174714A1, “TREATMENT OF SKIN DISORDERS” (priority 2021, published 2024) can be followed below.

Each structure is given as a SMILES string. Values after ≈ are worked out from the molar mass of the structure shown.

Assay [1] has as its system Staphylococcus aureus ATCC 33591. Kind of assay: microbe, parasite or virus in culture. The class given is cell-based. The note with it: Staphylococcus aureus, ATCC33591, read-out: MIC (Concurrent) μg/mL.
The subject of assay [2] is Staphylococcus aureus NARSA NRS383. Kind of assay: microbe, parasite or virus in culture. The note with it: Staphylococcus aureus, NRS383, read-out: MIC (Concurrent) μg/mL. The class given is cell-based.
For assay [3], the system named is Staphylococcus aureus ATCC 29213. Kind of assay: MIC broth microdilution, method 1. It is filed as cell-based. The note with it: Staphylococcus aureus, ATCC29213, reference compound, read-out: MIC (Concurrent). For orientation: Dilution methods test growth across graded concentrations, often in twofold steps.
Assay [4] relates to Staphylococcus aureus NARSA NRS119. Kind of assay: microbe, parasite or virus in culture. The class given is cell-based. The note with it: Staphylococcus aureus, NRS119, read-out: MIC (Concurrent) μg/mL.
Assay [5] relates to Streptococcus agalactiae ATCC 12386. Kind of assay: MIC broth microdilution, method 1. The class given is cell-based. The note with it: Streptococcus agalactiae, ATCC12386, reference compound, read-out: MIC (Concurrent).
In assay [6] the test system is Streptococcus pyogenes ATCC 19615. Kind of assay: MIC broth microdilution, method 1. The note with it: Streptococcus pyogenes, ATCC19615, reference compound, read-out: MIC (Concurrent). It is filed as cell-based.
Assay [7] has as its system Staphylococcus aureus ATCC BAA-1556, USA300 MRSA. Kind of assay: microbe, parasite or virus in culture. It is filed as cell-based. The note with it: Staphylococcus aureus. How it is done: Pre-formulated compound solution was diluted in 100% DMSO to prepare a 1.6 mg/mL working stock solution. […] The concentration range was 0.032 to 32 μg/mL.
The subject of assay [8] is Clostridium difficile ATCC BAA-1805. Kind of assay: microbe, parasite or virus in culture. The note with it: Clostridioides difficile, ATCCBAA1805, read-out: MIC (Concurrent) μg/mL.
Experimental: The antibacterial activity of inventive compounds was determined in duplicate in a Minimum Inhibitory Concentration (MIC) assay.
The antibacterial activity of 6027 acetate was measured using the in vitro broth microdilution assay under assay conditions described by the Clinical and Laboratory Standards Institute. […] Pre-formulated DMSO stock solution (26.67 mg/mL) was provided by sponsor. The 26.67 mg/mL stock solution was then diluted in DMSO to prepare a 6.4 mg/mL working stock solution. The 6.4 mg/mL working stock solution was diluted by 2-fold serial titrations in DMSO, for a total of 11 test concentrations. A 4 μl aliquot of each dilution was added to 196 of broth medium seeded with the organism suspension in wells of a 96 well plate (bacterial count: 2 −8×10^5 colony forming units/mL final). The final volume was 200 μl in each well and the final DMSO concentration was 2 percent. Test concentrations were 128 to 0.125 μg/mL.
Following incubation, the plates were visually examined, and wells were scored for growth or complete growth inhibition to define the minimum inhibitory concentration. […] Vehicle-control and Vancomycin or Linezolid, as depicted at Table 8, were used as blank and positive controls, respectively.
Assay [9] relates to Staphylococcus aureus ATCC BAA-1717. Kind of assay: microbe, parasite or virus in culture. It is filed as cell-based. The note with it: Staphylococcus aureus, ATCCBAA1717, read-out: MIC (Concurrent) μg/mL.
The subject of assay [10] is Staphylococcus aureus NARSA NRS127. Kind of assay: microbe, parasite or virus in culture. The class given is cell-based. The note with it: Staphylococcus aureus, NRS127, read-out: MIC (Concurrent) μg/mL.
Assay [11] deals with Staphylococcus aureus NARSA NRS382. Kind of assay: microbe, parasite or virus in culture. It is filed as cell-based. The note with it: Staphylococcus aureus, NRS382, read-out: MIC (Concurrent) μg/mL.

In the case of `CN[C@H](CC(C)C)C(=O)N[C@H]1C(=O)N[C@@H](CC(N)=O)C(=O)N[C@H]2C(=O)N[C@H]3C(=O)N[C@H](C(=O)N[C@H](C(=O)O)c4cc(O)cc(O)c4-c4cc3ccc4O)[C@H](O)c3ccc(c(Cl)c3)Oc3cc2cc(c3O[C@@H]2O[C@H](CO)[C@@H](O)[C@H](O)[C@H]2O[C@H]2C[C@](C)(N)[C@H](O)[C@H](C)O2)Oc2ccc(cc2Cl)[C@H]1O` [Vancomycin, reference compound], the MIC worked out at 1 µg/mL (≈ 0.69 µM) in assay [1]; 0.5 µg/mL (≈ 0.345 µM) in assay [2]; 0.5 µg/mL (≈ 0.345 µM) in assay [3]; 1 µg/mL (≈ 0.69 µM) in assay [4]; 0.5 µg/mL (≈ 0.345 µM) in assay [5]; 0.25 µg/mL (≈ 0.173 µM) in [6]. The MIC was 1 µg/mL (≈ 0.69 µM) in [7]; 0.5 µg/mL (≈ 0.345 µM) in assay [8]; 0.5 µg/mL (≈ 0.345 µM) in assay [9]; 1 µg/mL (≈ 0.69 µM) in [10]; 1 µg/mL (≈ 0.69 µM) in assay [11].
